Values quoted from earlier work in US8349982B2, “Macromonomers and hydrogels” (William Marsh Rice University, priority 2006, dated 2013).

Details: stated as typical

With `C=CC(=O)OCC(CO)(COC(=O)C=C)COC(=O)CCCCCCCCCCCCCCCCC` [PEDAS, Pentaerythritol diacrylate monostearate] as the compound, how does the “Solubility in water (in words)” value read?
Its value is “insoluble in water”.
